Patent publication US20260008750A1, “COMPOUNDS, COMPOSITIONS, AND METHODS FOR REDUCING PRODUCTION OF TRIMETHYLAMINE” (The Cleveland Clinic Foundation, priority 2022, published 2026)
Structures can show the parent of a compound that is named as a salt.

Biological target: recombinant CutC/D (choline TMA lyase) (Proteus mirabilis, UniProt B4EYG1)
Experiment: Choline TMA lyase enzymatic activity assay (d9-choline to d9-TMA) in clarified lysate
Type: biochemical, P. mirabilis
Settings: clarified lysate 5 mg/mL of E. coli expressing cutC/cutD; 300 μM d9-choline; 2 hours at 22° C.; d9-TMA by mass spectrometry
Method: Full-length, recombinant CutC/D was expressed through the use of competent E. coli cells transformed with the expression plasmids encoding for the cutC and cutD genes from P. mirabilis as described (Wang Z et al., Cell 2015 Dec. 17; 163(7):1585-95). CutC/D over-expressing cells were grown in nutrient-rich LB medium with the addition of ampicillin (100 μg/mL). The cell pellets were kept on ice and re-suspended in the lysis buffer: 200 mM HEPES, 50 mM NaCl, 10 mM MgCl2, pH 8.0. Clarified lysate was aliquoted and flash frozen for storage at −80° C. until use.
Choline TMA lyase enzymatic activity assays were conducted to measure the conversion of isotope-labeled do-choline to do-TMA. Upon thawing an aliquot of frozen clarified lysate on ice and gentle mixing, clarified lysate was diluted to 5 mg/mL in lysis buffer and the necessary co-factors were added (final concentration: 1 mM SAM, 10 mM NaDT, and 2 mM NADH). Potential inhibitor compounds (typically dissolved in H2O) were serially diluted (10-fold) and added to individual reaction mixtures (done in triplicate). The mixture was then allowed to incubate for at least 15 minutes at 22° C. before the addition of substrate (300 μM final do-choline) to initiate the reaction, which was carried out for 2 hours at room temperature (22° C.) in the dark in gas tight sealed reaction vials. The reactions were quenched with the addition of 200 μL of 1 M NaOH and 0.5 μM of the internal standard ([^13C3^15N1]TMA), vortexing and placement in ice. d9-TMA production was quantified using mass spectrometry by measuring the peak area ratio of the precursor to product ion transition of d9-TMA (m/z 69→49) to the internal standard [^13C3^15N1]TMA (m/z 64→47).

Sequence of recombinant CutC/D (choline TMA lyase) (B4EYG1 1-1142): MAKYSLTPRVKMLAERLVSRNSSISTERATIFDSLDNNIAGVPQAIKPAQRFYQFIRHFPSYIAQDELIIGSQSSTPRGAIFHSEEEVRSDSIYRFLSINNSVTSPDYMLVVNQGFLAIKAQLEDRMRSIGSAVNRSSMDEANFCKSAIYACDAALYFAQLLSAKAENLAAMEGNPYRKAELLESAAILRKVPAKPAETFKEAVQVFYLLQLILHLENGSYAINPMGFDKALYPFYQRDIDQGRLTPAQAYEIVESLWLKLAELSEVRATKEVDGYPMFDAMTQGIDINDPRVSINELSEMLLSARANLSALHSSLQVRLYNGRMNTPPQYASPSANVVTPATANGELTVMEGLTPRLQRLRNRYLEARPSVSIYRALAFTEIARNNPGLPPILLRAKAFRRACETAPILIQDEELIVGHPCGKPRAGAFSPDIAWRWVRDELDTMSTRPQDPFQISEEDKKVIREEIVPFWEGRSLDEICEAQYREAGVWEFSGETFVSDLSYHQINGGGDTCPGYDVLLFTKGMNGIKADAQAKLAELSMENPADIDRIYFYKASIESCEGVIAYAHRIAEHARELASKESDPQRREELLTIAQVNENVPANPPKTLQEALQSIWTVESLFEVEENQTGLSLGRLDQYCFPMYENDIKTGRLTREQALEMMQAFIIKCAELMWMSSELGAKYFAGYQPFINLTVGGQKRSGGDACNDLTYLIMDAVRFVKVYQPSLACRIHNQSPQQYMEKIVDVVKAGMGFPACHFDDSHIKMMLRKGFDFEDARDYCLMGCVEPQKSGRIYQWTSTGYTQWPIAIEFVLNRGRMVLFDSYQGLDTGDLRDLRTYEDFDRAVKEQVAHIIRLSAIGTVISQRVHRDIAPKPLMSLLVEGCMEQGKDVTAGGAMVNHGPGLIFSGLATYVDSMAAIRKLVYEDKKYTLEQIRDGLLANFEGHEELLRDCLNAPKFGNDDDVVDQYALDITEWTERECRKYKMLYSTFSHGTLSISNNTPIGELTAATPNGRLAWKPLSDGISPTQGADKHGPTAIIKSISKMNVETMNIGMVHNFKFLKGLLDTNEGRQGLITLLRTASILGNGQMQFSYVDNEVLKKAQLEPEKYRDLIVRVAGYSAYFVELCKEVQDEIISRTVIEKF

Row | SMILES | IC50
1 | C[N+](C)(CF)CCOC(=O)CN [Compound 1, 2-(2-Aminoacetoxy)-N-(fluoromethyl)-N,N-dimethylethanaminium dibromide] | 3.2 nM
2 | C[N+](C)(CF)CCOC(=O)[C@@H]1CCCN1 [Compound 5, N-(fluoromethyl)-N,N-dimethyl-2-(prolyloxy)ethan-1-aminium chloride hydrochloride] | 6.5 nM
3 | C[N+](C)(CF)CCOC(=O)[C@@H](N)Cc1ccccc1 [Compound 6, 2-((L-phenylalanyl)oxy)-N-(fluoromethyl)-N,N-dimethylethan-1-aminium dibromide] | 18 nM
4 | C[C@H](N)C(=O)OCC[N+](C)(C)CF [Compound 3, (S)-2-((2-Aminopropanoyl)oxy)-N-(fluoromethyl)-N,N-dimethylethanaminium dibromide] | 31 nM
5 | CC(C)[C@H](N)C(=O)OCC[N+](C)(C)CF [Compound 2, (S)-2-((2-Amino-3-methylbutanoyl)oxy)-N-(fluoromethyl)-N,N-dimethylethanaminium dibromide] | 52 nM
